Data on one compound can be found in article PMC5893597, “Structural mechanism for nucleotide-driven remodeling of the AAA-ATPase unfoldase in the activated human 26S proteasome” (Nature Communications, 2018).

This test relates to T1, human 26S proteasome AAA-ATPase heterohexamer (Rpt1-6) in the holoenzyme.
T1 construct: gene PSMC2; endogenous subunits in doubly capped 26S holoenzyme (28-subunit CP, 19-subunit RPs)
The test can be described thus: cryo-EM structure. The conditions noted are these: 1 mM ATP-γ-S, 1 mM MgCl2, pH 7.5; Walker A nucleotide sites of Rpt subunits. It is filed as binding.

For the compound `Nc1ncnc2c1ncn2[C@@H]1O[C@H](COP(=O)(O)OP(=O)(O)OP(O)(O)=S)[C@@H](O)[C@H]1O` [ATP-γ-S], the cryo-EM structure result is listed as “ATP-γ-S was modeled into the nucleotide densities of four Rpt subunits in each state”.
